According to ChEMBL document CHEMBL5649169 (ChemMedChem, 2018):

How the values were obtained:
[1] = molecular target: Ephrin type-A receptor 1 (Homo sapiens) (UniProt P21709)
Ephrin type-A receptor 2 = Ephrin type-A receptor 2 (Homo sapiens, UniProt P29317)
[2] = molecular target: Tyrosine-protein kinase ABL1 (Homo sapiens, UniProt P00519)
[3] = molecular target: Argininosuccinate synthase (Homo sapiens) (UniProt P00966)
Ataxin-10 (Homo sapiens) = Ataxin-10 (Homo sapiens) (UniProt Q9UBB4)
Calumenin (Homo sapiens) = Calumenin (Homo sapiens) (UniProt O43852)
[4] = molecular target: T-complex protein 1 subunit beta (Homo sapiens) (UniProt P78371)
[5] = molecular target: T-complex protein 1 subunit theta (Homo sapiens) (UniProt P50990)
[6] = molecular target: Ceramide synthase 2 (Homo sapiens) (UniProt Q96G23)
[7] = molecular target: CCR4-NOT transcription complex subunit 1 (Homo sapiens) (UniProt A5YKK6)
[8] = molecular target: Eukaryotic translation initiation factor 3 subunit A (Homo sapiens) (UniProt Q14152)
[9] = molecular target: Casein kinase I isoform epsilon (Homo sapiens) (UniProt P49674)
[10] = molecular target: Cathepsin B (Homo sapiens) (UniProt P07858)
[11] = molecular target: Dipeptidyl peptidase 1 (Homo sapiens) (UniProt P53634)
Homo sapiens [12] = species on record: Homo sapiens
Ezrin (Homo sapiens) = Ezrin (Homo sapiens) (UniProt P15311)
[13] = molecular target: Constitutive coactivator of PPAR-gamma-like protein 1 (Homo sapiens) (UniProt Q9NZB2)
[14] = molecular target: Guanine nucleotide-binding protein G(i) subunit alpha-2 (Homo sapiens) (UniProt P04899)
[15] = molecular target: Glycogen synthase kinase-3 beta (Homo sapiens) (UniProt P49841)
[16] = molecular target: Tyrosine-protein kinase BTK (Homo sapiens) (UniProt Q06187)
Homo sapiens [17] = species on record: Homo sapiens; remark: listed apart in the source
[18] = molecular target: Interleukin enhancer-binding factor 2 (Homo sapiens) (UniProt Q12905)
[19] = molecular target: Katanin p60 ATPase-containing subunit A-like 2 (Homo sapiens) (UniProt Q8IYT4)
[20] = molecular target: Mitogen-activated protein kinase kinase kinase 6 (Homo sapiens) (UniProt O95382)
[21] = molecular target: Mitogen-activated protein kinase 10 (Homo sapiens) (UniProt P53779)
Moesin (Homo sapiens) = Moesin (Homo sapiens) (UniProt P26038)
[22] = molecular target: Cytochrome c oxidase subunit 2 (Homo sapiens) (UniProt P00403)
[23] = molecular target: ADP-sugar pyrophosphatase (Homo sapiens) (UniProt Q9UKK9)
[24] = molecular target: ORM1-like protein 3 (Homo sapiens) (UniProt Q8N138)
[25] = molecular target: Oxysterol-binding protein-related protein 8 (Homo sapiens) (UniProt Q9BZF1)
[26] = molecular target: Pyruvate kinase PKM (Homo sapiens) (UniProt P14618)
Homo sapiens [27] = species on record: Homo sapiens; remark: listed apart in the source
[28] = molecular target: Large ribosomal subunit protein uL11 (Homo sapiens) (UniProt P30050)
[29] = molecular target: Large ribosomal subunit protein eL24 (Homo sapiens) (UniProt P83731)
[30] = molecular target: Large ribosomal subunit protein uL2 (Homo sapiens) (UniProt P62917)
[31] = molecular target: Small ribosomal subunit protein uS8 (Homo sapiens) (UniProt P62244)
[32] = molecular target: Small ribosomal subunit protein uS12 (Homo sapiens) (UniProt P62266)
Homo sapiens [33] = species on record: Homo sapiens; remark: listed apart in the source
[34] = molecular target: Sideroflexin-1 (Homo sapiens) (UniProt Q9H9B4)
[35] = molecular target: Monocarboxylate transporter 4 (Homo sapiens) (UniProt O15427)
[36] = molecular target: Signal peptidase complex subunit 2 (Homo sapiens) (UniProt Q15005)
[37] = molecular target: Serine palmitoyltransferase 1 (Homo sapiens) (UniProt O15269)
[38] = molecular target: Lupus La protein (Homo sapiens) (UniProt P05455)
Stathmin (Homo sapiens) = Stathmin (Homo sapiens) (UniProt P16949)
Titin (Homo sapiens) = Titin (Homo sapiens) (UniProt Q8WZ42)
[39] = molecular target: Ubiquitin-conjugating enzyme E2 L3 (Homo sapiens) (UniProt P68036)
[40] = molecular target: Protein VAC14 homolog (Homo sapiens) (UniProt Q08AM6)
[41] = molecular target: 14-3-3 protein epsilon (Homo sapiens) (UniProt P62258)
[42] = molecular target: Zona pellucida sperm-binding protein 1 (Homo sapiens) (UniProt P60852)
Further: assay method not described here.

Constitutive coactivator of PPAR-gamma-like protein 1 (Homo sapiens), sequence (Q9NZB2 whole entry): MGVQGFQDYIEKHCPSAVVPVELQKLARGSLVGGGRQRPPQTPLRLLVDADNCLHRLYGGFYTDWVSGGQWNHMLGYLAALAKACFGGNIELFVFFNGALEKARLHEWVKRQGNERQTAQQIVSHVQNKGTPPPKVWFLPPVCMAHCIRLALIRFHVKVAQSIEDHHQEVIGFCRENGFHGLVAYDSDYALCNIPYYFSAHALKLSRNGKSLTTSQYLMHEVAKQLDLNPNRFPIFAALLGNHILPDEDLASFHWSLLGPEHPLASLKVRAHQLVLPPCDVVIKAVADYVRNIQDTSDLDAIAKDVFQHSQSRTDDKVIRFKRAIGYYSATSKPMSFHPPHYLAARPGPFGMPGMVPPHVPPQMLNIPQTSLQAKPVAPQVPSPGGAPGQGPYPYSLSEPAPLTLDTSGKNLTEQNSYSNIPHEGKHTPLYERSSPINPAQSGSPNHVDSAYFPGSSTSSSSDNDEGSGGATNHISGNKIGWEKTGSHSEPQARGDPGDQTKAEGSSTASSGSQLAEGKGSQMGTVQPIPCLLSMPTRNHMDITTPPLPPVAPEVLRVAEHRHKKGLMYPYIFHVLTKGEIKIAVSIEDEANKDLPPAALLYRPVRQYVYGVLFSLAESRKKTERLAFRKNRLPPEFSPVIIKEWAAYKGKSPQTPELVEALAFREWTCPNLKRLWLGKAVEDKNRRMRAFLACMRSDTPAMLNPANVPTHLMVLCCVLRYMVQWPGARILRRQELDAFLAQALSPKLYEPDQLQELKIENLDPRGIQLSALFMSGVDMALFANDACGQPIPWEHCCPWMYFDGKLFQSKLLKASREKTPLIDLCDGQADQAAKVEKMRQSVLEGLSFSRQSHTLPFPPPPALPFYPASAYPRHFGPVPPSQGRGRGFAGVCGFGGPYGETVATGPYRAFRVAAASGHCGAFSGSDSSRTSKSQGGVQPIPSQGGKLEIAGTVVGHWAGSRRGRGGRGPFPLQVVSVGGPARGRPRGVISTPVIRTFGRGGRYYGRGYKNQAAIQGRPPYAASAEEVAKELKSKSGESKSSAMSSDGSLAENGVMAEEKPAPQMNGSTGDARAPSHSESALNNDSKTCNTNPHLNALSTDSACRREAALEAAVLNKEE
Tyrosine-protein kinase ABL1, sequence (P00519 whole entry): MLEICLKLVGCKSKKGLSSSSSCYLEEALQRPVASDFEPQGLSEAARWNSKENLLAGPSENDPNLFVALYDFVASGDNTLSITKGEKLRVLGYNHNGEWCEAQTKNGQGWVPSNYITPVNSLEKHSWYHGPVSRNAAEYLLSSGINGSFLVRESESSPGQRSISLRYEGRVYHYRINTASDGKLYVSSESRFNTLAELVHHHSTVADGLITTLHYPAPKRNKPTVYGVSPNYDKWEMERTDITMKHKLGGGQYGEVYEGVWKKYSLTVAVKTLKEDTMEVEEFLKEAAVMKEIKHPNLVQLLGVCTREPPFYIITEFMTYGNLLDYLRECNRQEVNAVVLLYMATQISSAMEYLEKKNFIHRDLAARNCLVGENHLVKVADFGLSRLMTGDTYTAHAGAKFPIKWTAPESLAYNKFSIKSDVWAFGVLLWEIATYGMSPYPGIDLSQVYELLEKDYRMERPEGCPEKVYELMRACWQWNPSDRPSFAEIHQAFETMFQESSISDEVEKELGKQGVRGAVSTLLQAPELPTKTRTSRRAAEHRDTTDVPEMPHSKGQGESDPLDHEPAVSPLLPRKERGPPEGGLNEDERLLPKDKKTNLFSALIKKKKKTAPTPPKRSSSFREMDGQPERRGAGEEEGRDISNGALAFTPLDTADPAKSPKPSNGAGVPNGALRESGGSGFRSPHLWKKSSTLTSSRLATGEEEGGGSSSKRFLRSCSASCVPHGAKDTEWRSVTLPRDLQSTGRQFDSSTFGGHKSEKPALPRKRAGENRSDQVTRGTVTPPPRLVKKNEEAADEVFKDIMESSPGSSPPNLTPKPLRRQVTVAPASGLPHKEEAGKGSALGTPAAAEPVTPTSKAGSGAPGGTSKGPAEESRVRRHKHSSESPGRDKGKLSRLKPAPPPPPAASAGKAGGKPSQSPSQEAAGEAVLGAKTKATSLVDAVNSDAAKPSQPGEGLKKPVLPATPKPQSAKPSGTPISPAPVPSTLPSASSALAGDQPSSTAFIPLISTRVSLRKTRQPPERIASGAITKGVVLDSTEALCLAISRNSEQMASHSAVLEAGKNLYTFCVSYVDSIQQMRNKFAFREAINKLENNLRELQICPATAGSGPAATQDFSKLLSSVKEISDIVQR
Mitogen-activated protein kinase 10 (Homo sapiens), sequence (P53779 whole entry): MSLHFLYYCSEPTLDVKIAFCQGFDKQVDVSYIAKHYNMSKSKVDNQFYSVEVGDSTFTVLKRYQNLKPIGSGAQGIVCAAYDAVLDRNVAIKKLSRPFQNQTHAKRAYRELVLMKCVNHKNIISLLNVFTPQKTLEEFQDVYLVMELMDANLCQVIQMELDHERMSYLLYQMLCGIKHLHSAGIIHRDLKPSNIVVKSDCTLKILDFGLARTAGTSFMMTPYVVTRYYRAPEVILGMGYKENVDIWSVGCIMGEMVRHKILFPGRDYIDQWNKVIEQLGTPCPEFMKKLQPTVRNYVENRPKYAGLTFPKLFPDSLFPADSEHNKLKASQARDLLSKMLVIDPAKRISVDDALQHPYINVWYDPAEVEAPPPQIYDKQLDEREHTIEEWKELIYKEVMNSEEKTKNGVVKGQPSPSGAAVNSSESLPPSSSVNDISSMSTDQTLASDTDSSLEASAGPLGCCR
Interleukin enhancer-binding factor 2 (Homo sapiens), sequence (Q12905 whole entry): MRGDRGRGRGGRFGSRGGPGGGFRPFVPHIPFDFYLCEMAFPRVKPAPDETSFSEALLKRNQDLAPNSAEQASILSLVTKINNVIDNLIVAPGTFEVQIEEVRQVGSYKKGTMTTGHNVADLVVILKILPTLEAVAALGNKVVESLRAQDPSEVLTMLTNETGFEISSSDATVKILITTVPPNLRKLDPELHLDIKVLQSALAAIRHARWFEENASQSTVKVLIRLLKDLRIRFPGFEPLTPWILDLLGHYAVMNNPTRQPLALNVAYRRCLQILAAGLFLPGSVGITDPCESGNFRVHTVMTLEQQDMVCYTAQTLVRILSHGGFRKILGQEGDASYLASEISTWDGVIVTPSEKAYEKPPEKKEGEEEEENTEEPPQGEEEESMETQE
Cytochrome c oxidase subunit 2 (Homo sapiens), sequence (P00403 whole entry): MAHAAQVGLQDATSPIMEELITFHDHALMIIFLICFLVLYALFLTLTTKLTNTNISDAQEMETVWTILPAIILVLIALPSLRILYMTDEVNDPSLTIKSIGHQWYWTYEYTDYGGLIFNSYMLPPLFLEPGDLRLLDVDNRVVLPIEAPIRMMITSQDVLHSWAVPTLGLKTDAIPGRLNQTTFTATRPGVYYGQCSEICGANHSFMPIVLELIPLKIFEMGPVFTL
Zona pellucida sperm-binding protein 1 (Homo sapiens), sequence (P60852 whole entry): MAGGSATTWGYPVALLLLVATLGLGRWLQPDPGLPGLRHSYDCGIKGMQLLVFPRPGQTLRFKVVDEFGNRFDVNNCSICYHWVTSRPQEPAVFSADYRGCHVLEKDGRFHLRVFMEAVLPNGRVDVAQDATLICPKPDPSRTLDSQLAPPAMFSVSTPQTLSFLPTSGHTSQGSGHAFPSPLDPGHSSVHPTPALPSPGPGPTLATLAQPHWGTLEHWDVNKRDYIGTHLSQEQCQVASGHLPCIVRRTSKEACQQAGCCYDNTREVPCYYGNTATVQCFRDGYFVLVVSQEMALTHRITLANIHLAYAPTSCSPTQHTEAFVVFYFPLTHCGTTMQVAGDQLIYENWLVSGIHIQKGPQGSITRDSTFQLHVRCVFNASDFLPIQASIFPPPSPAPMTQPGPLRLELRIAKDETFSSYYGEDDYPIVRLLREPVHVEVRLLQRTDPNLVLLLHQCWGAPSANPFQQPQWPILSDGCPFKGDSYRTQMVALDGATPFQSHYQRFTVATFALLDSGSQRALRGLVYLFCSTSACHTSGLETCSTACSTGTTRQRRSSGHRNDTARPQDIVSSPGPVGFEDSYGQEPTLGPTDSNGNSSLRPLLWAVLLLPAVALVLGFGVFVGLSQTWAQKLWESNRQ
Argininosuccinate synthase (Homo sapiens), sequence (P00966 whole entry): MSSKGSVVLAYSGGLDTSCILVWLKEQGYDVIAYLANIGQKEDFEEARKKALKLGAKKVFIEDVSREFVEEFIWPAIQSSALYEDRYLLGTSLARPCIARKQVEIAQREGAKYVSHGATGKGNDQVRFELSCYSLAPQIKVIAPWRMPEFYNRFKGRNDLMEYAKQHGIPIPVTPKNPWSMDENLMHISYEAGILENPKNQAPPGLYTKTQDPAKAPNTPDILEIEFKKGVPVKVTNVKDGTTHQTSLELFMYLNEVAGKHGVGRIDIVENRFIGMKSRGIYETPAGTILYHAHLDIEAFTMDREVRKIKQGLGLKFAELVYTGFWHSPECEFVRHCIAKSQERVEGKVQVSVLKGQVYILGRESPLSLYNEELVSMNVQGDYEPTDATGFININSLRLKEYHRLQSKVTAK
Calumenin (Homo sapiens), sequence (O43852 whole entry): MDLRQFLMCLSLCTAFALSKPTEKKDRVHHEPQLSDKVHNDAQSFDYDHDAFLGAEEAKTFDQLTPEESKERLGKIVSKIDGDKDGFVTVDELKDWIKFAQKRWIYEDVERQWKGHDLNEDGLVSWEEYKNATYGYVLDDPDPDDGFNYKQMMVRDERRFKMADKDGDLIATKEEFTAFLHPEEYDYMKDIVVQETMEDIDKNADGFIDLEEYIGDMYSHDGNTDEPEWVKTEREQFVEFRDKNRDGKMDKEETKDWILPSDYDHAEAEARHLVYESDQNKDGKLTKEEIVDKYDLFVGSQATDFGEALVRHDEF
ORM1-like protein 3 (Homo sapiens), sequence (Q8N138 whole entry): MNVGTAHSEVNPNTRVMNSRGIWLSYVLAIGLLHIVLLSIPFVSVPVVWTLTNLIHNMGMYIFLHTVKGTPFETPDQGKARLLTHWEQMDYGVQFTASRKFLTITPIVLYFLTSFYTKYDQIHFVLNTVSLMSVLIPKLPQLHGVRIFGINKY
Stathmin (Homo sapiens), sequence (P16949 whole entry): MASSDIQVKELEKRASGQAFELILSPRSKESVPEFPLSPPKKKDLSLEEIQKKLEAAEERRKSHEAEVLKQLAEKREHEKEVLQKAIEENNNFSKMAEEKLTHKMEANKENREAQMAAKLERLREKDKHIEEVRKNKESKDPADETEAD

Cc1ccc(C(=O)Nc2cccc(C(F)(F)F)c2)cc1Nc1nc(-c2cccnc2)nc2c1cnn2C
ED50 [1]: 0.064 µM | ED50 (Ephrin type-A receptor 2): 0.58 µM | ED50 [2]: 1.66 µM | ED50 [3]: 5.02 µM | ED50 (Ataxin-10 (Homo sapiens)): 0.103 µM | ED50 (Calumenin (Homo sapiens)): 1.72 µM | ED50 [4]: 0.0178 µM | ED50 [5]: 0.0186 µM | ED50 [6]: 0.0683 µM | ED50 [7]: 0.0688 µM | ED50 [8]: 0.535 µM | ED50 [9]: 4.26 µM | ED50 [10]: 60.4 µM | ED50 [11]: 0.0113 µM | ED50 (Homo sapiens [12]): 3.14 µM | ED50 (Ezrin (Homo sapiens)): 7.29 µM | ED50 [13]: 4.66 µM | ED50 [14]: 0.335 µM | ED50 [15]: 4.03 µM | ED50 [16]: 5.02 µM | ED50 (Homo sapiens [17]): 1.29 µM | ED50 [18]: 4.54 µM | ED50 [19]: 0.0376 µM | ED50 [20]: 1.26 µM | ED50 [21]: 32.9 µM | ED50 (Moesin (Homo sapiens)): 10.7 µM | ED50 [22]: 0.449 µM | ED50 [23]: 3.76 µM | ED50 [24]: 5.95 µM | ED50 [25]: 0.128 µM | ED50 [26]: 5.83 µM | ED50 (Homo sapiens [27]): 49.3 µM | ED50 [28]: 3.63 µM | ED50 [29]: 10.3 µM | ED50 [30]: 0.0503 µM | ED50 [31]: 0.00641 µM | ED50 [32]: 0.00873 µM | ED50 (Homo sapiens [33]): 70 µM | ED50 [34]: 3.47 µM | ED50 [35]: 4.22 µM | ED50 [36]: 0.916 µM | ED50 [37]: 0.613 µM | ED50 [38]: 1.94 µM | ED50 (Stathmin (Homo sapiens)): 12.4 µM | ED50 (Titin (Homo sapiens)): 0.0522 µM | ED50 [39]: 5.79 µM | ED50 [40]: 0.648 µM | ED50 [41]: 6.15 µM | ED50 [42]: 0.00241 µM

Cc1ccc(C(=O)Nc2cccc(C(F)(F)F)c2)cc1Nc1nc(-c2cccnc2)nc2nn(C)cc12
ED50 [1]: 4.58 µM | ED50 (Ephrin type-A receptor 2): 6.17 µM | ED50 [2]: 1.34 µM | ED50 [3]: 0.0579 µM | ED50 (Ataxin-10 (Homo sapiens)): 1470 µM | ED50 (Calumenin (Homo sapiens)): 3.41 µM | ED50 [4]: 0.0532 µM | ED50 [5]: 43.3 µM | ED50 [6]: 3.6 µM | ED50 [7]: 0.0203 µM | ED50 [8]: 0.0765 µM | ED50 [9]: 0.00408 µM | ED50 [10]: 18.1 µM | ED50 [11]: 1.88 µM | ED50 (Homo sapiens [12]): 9.29 µM | ED50 (Ezrin (Homo sapiens)): 0.0827 µM | ED50 [13]: 0.00365 µM | ED50 [14]: 0.13 µM | ED50 [15]: 0.0177 µM | ED50 [16]: 5.75 µM | ED50 (Homo sapiens [17]): 0.0274 µM | ED50 [18]: 0.0135 µM | ED50 [19]: 0.00647 µM | ED50 [20]: 8.27 µM | ED50 [21]: 1.72 µM | ED50 (Moesin (Homo sapiens)): 0.256 µM | ED50 [22]: 0.153 µM | ED50 [23]: 7.98 µM | ED50 [24]: 7.47 µM | ED50 [25]: 650 µM | ED50 [26]: 0.174 µM | ED50 (Homo sapiens [27]): 0.631 µM | ED50 [28]: 0.0513 µM | ED50 [29]: 27 µM | ED50 [30]: 0.121 µM | ED50 [31]: 5.32 µM | ED50 [32]: 0.000624 µM | ED50 (Homo sapiens [33]): 17.7 µM | ED50 [34]: 0.012 µM | ED50 [35]: 2.74 µM | ED50 [36]: 2.99 µM | ED50 [37]: 0.107 µM | ED50 [38]: 0.0279 µM | ED50 (Stathmin (Homo sapiens)): 8.26 µM | ED50 (Titin (Homo sapiens)): 0.0126 µM | ED50 [39]: 0.32 µM | ED50 [40]: 3.84 µM | ED50 [41]: 0.0477 µM | ED50 [42]: 4.25 µM
